In patent publication US10934277B2, “Enantiomerically purified GPER agonist for use in treating disease states and conditions” (Linnaeus Therapeutics, Inc., priority 2018, dated 2021):

Key:
OPRD1 = OPRD1 (Homo sapiens, UniProt P41143); experiment: Off target selectivity assay, OPRD1; format: cell-based; details: dose response, concentrations up to 10 μM; read-out: IC50 or EC50 on OPRD1
Protocol: (§1) Final assay vehicle concentration was 1%.
(§2) For Gi coupled GPCRs, EC80 forskolin was included.
(§3) DMSO concentration for all readouts is ≤0.2%.
(§4) Probenicid was prepared fresh. Cells were loaded with dye prior to testing.

ADRA2A = target: T1, ADRA2A (Homo sapiens, UniProt P08913); experiment: Off target selectivity assay, ADRA2A; format: cell-based; details: dose response, concentrations up to 10 μM; read-out: IC50 or EC50 on ADRA2A
T1 sequence (P08913 1-465): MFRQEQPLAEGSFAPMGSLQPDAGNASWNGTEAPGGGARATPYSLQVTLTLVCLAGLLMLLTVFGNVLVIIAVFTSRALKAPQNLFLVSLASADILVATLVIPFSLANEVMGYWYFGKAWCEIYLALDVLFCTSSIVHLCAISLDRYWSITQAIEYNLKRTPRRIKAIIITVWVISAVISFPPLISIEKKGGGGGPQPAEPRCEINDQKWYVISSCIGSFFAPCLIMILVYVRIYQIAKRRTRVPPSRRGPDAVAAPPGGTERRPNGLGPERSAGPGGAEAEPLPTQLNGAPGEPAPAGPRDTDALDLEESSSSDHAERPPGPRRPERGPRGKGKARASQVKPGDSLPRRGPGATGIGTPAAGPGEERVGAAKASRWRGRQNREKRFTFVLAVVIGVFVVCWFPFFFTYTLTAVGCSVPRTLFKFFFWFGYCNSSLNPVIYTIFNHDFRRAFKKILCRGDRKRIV
Protocol: as §1, §2, §3, §4

AR = target: T2, AR (Homo sapiens, UniProt P10275); experiment: Off target selectivity assay, Nuclear Hormone Receptor AR
T2 sequence (P10275 1-920): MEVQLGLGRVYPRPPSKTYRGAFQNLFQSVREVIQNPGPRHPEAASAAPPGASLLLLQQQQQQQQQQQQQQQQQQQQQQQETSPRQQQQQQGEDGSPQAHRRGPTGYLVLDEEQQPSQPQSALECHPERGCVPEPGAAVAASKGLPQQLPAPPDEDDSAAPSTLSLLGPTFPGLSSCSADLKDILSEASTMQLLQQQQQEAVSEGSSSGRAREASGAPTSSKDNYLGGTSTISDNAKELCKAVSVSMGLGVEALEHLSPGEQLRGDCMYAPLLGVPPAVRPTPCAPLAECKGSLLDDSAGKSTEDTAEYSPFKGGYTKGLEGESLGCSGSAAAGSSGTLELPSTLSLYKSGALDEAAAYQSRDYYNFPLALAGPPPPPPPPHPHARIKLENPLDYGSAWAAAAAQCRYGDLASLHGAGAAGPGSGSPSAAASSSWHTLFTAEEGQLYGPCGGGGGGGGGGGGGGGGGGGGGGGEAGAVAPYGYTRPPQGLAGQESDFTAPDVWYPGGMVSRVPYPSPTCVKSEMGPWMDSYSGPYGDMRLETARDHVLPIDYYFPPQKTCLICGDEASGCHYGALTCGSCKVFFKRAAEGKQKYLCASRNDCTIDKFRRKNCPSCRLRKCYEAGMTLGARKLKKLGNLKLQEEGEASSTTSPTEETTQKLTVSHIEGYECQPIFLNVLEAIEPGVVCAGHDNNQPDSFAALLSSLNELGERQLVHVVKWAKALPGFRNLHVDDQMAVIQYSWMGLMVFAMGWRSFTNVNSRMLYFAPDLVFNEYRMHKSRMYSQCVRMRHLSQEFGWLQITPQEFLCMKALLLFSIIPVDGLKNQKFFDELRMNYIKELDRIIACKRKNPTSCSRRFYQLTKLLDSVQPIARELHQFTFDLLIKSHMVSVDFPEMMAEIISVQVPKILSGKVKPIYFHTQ

OPRD1, sequence (P41143 whole entry): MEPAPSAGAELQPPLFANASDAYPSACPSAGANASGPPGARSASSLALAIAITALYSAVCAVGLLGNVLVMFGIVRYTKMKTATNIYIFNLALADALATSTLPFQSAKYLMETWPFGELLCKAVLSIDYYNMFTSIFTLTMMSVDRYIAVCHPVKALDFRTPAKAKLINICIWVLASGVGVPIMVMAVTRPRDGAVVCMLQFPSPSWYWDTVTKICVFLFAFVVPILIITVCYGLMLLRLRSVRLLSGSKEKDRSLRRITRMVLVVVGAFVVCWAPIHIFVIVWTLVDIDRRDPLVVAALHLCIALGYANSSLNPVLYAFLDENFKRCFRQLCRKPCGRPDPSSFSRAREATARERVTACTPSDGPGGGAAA

IC50 (OPRD1) [nM]	IC50 (ADRA2A) [nM]	IC50 (AR) [nM]	SMILES
870	–	–	CC(=O)c1ccc2c(c1)[C@@H]1C=CC[C@@H]1[C@H](c1cc3c(cc1Br)OCO3)N2 (single isomer, unassigned) [SRR G-1]
–	2070	4760	CC(=O)c1ccc2c(c1)[C@H]1C=CC[C@H]1[C@@H](c1cc3c(cc1Br)OCO3)N2 [RSS G-1, 1-((3aR,4S,9bS)-4-(6-bromobenzo[d][1,3]dioxol-5-yl)-3a,4,5,9b-tetrahydro-3H-cyclopenta[c]quinolin-8-yl)ethan-1-one]
